From PubChem BioAssay (NCI)
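Values below derive from 48-hour exposures of cells grown in 96-well plates, with endpoints linearly interpolated between the two concentrations bracketing the appropriate inhibition level. At the GI50, growth is halved. TGI: concentration producing complete growth inhibition.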

What was measured:
Test in all cases: inhibition of tumour cell growth, NCI panel, 48 h
HCT-116 colon = system: HCT-116 colon
M14 melanoma = system: M14 melanoma
MALME-3M melanoma = system: MALME-3M melanoma
KM12 colon = system: KM12 colon
SF-295 CNS = system: SF-295 CNS
HL-60(TB) leukemia = system: HL-60(TB) leukemia
HOP-92 NSCLC = system: HOP-92 NSCLC
NCI-H460 lung = system: NCI-H460 lung
OVCAR-4 ovarian = system: OVCAR-4 ovarian
A498 renal = system: A498 renal
NCI-H522 lung = system: NCI-H522 lung
CAKI-1 renal = system: CAKI-1 renal
PC-3 prostate = system: PC-3 prostate
SNB-19 CNS = system: SNB-19 CNS
NCI-H23 lung = system: NCI-H23 lung
SK-MEL-28 melanoma = system: SK-MEL-28 melanoma
SNB-75 CNS = system: SNB-75 CNS
IGROV1 ovarian = system: IGROV1 ovarian
786-0 renal = system: 786-0 renal
EKVX NSCLC = system: EKVX NSCLC
SK-MEL-5 melanoma = system: SK-MEL-5 melanoma
COLO 205 colon = system: COLO 205 colon
UACC-257 melanoma = system: UACC-257 melanoma
SF-539 CNS = system: SF-539 CNS
SW-620 colon = system: SW-620 colon
OVCAR-3 ovarian = system: OVCAR-3 ovarian
TK-10 renal = system: TK-10 renal
CCRF-CEM leukemia = system: CCRF-CEM leukemia
BT-549 breast = system: BT-549 breast
K-562 leukemia = system: K-562 leukemia
HCT-15 colon = system: HCT-15 colon
OVCAR-5 ovarian = system: OVCAR-5 ovarian
MDA-MB-435 = system: MDA-MB-435
SK-OV-3 ovarian = system: SK-OV-3 ovarian
SR leukemia = system: SR leukemia
MOLT-4 leukemia = system: MOLT-4 leukemia
HCC-2998 colon = system: HCC-2998 colon
SK-MEL-2 melanoma = system: SK-MEL-2 melanoma
DU-145 prostate = system: DU-145 prostate
SN12C renal = system: SN12C renal
NCI/ADR-RES ovarian = system: NCI/ADR-RES ovarian
MDA-MB-231 breast = system: MDA-MB-231 breast
UO-31 renal = system: UO-31 renal
ACHN renal = system: ACHN renal
UACC-62 melanoma = system: UACC-62 melanoma

**Q.** What does the source list for `COc1cc2cc(Oc3ccc(NC(=O)Nc4ccc(Cl)c(C(F)(F)F)c4)cc3)c(C)nc2cc1OCCN1CCCCC1`?
**A.** GI50 (HCT-116 colon): 1540 nM; TGI (HCT-116 colon): 2980 nM; GI50 (M14 melanoma): 1920 nM; TGI (M14 melanoma): 3780 nM; GI50 (MALME-3M melanoma): 1620 nM; TGI (MALME-3M melanoma): 3130 nM; GI50 (KM12 colon): 1640 nM; TGI (KM12 colon): 3090 nM; GI50 (SF-295 CNS): 1810 nM; TGI (SF-295 CNS): 3300 nM; GI50 (HL-60(TB) leukemia): 1870 nM; TGI (HL-60(TB) leukemia): 3530 nM; GI50 (HOP-92 NSCLC): 1090 nM; TGI (HOP-92 NSCLC): 2410 nM; GI50 (NCI-H460 lung): 1850 nM; TGI (NCI-H460 lung): 3470 nM; GI50 (OVCAR-4 ovarian): 1460 nM; TGI (OVCAR-4 ovarian): 3290 nM; GI50 (A498 renal): 1240 nM; TGI (A498 renal): 2580 nM; GI50 (NCI-H522 lung): 1590 nM; TGI (NCI-H522 lung): 3260 nM; GI50 (CAKI-1 renal): 1310 nM; TGI (CAKI-1 renal): 2640 nM; GI50 (PC-3 prostate): 1270 nM; TGI (PC-3 prostate): 2690 nM; GI50 (SNB-19 CNS): 1680 nM; TGI (SNB-19 CNS): 3190 nM; GI50 (NCI-H23 lung): 1690 nM; TGI (NCI-H23 lung): 3280 nM; GI50 (SK-MEL-28 melanoma): 1790 nM; TGI (SK-MEL-28 melanoma): 3230 nM; GI50 (SNB-75 CNS): 1130 nM; TGI (SNB-75 CNS): 2330 nM; GI50 (IGROV1 ovarian): 1480 nM; TGI (IGROV1 ovarian): 2940 nM; GI50 (786-0 renal): 1640 nM; TGI (786-0 renal): 3170 nM; GI50 (EKVX NSCLC): 1460 nM; TGI (EKVX NSCLC): 2880 nM; GI50 (SK-MEL-5 melanoma): 1650 nM; TGI (SK-MEL-5 melanoma): 3040 nM; GI50 (COLO 205 colon): 1650 nM; TGI (COLO 205 colon): 3330 nM; GI50 (UACC-257 melanoma): 1790 nM; TGI (UACC-257 melanoma): 3460 nM; GI50 (SF-539 CNS): 1580 nM; TGI (SF-539 CNS): 2940 nM; GI50 (SW-620 colon): 1900 nM; TGI (SW-620 colon): 3480 nM; GI50 (OVCAR-3 ovarian): 1600 nM; TGI (OVCAR-3 ovarian): 3030 nM; GI50 (TK-10 renal): 1790 nM; TGI (TK-10 renal): 3380 nM; GI50 (CCRF-CEM leukemia): 1680 nM; TGI (CCRF-CEM leukemia): 3760 nM; GI50 (BT-549 breast): 1790 nM; TGI (BT-549 breast): 3450 nM; GI50 (K-562 leukemia): 547 nM; TGI (K-562 leukemia): 2330 nM; GI50 (HCT-15 colon): 1250 nM; TGI (HCT-15 colon): 2590 nM; GI50 (OVCAR-5 ovarian): 1920 nM; TGI (OVCAR-5 ovarian): 3380 nM; GI50 (MDA-MB-435): 1560 nM; TGI (MDA-MB-435): 2920 nM; GI50 (SK-OV-3 ovarian): 2280 nM; TGI (SK-OV-3 ovarian): 3930 nM; GI50 (SR leukemia): 486 nM; TGI (SR leukemia): 2370 nM; GI50 (MOLT-4 leukemia): 1100 nM; TGI (MOLT-4 leukemia): 2710 nM; GI50 (HCC-2998 colon): 1850 nM; TGI (HCC-2998 colon): 3460 nM; GI50 (SK-MEL-2 melanoma): 1870 nM; TGI (SK-MEL-2 melanoma): 3640 nM; GI50 (DU-145 prostate): 1530 nM; TGI (DU-145 prostate): 2870 nM; GI50 (SN12C renal): 1670 nM; TGI (SN12C renal): 3260 nM; GI50 (NCI/ADR-RES ovarian): 1690 nM; TGI (NCI/ADR-RES ovarian): 3270 nM; GI50 (MDA-MB-231 breast): 1390 nM; TGI (MDA-MB-231 breast): 2750 nM; GI50 (UO-31 renal): 1360 nM; TGI (UO-31 renal): 2690 nM; GI50 (ACHN renal): 1570 nM; TGI (ACHN renal): 2920 nM; GI50 (UACC-62 melanoma): 1690 nM; TGI (UACC-62 melanoma): 3080 nM
